Measurements reported in patent US20130302442A1, “METHODS OF USING (4S,4AS,5AR,12AS)-4-DIMETHYLAMINO-3,10,12,12A-TETRAHYDROXY-7-[(METHOXY(METHYL)AMINO)-METHYL]-1,11-DIOXO-1,4,4A,5,5A,6,11,12A-OCTAHYDRO-NAPHTHACENE-2-CARBOXYLIC ACID AMIDE” (priority 2012, published 2013).
In brackets after ≈: the same amount, converted by molar mass. Like-named read-outs stand apart in the source and are kept apart here.

Assays:
[1] = test system: S. pyogenes; assay: In vitro MIC testing, antibacterial spectrum of activity; type: cell-based
[2] = test system: P. acnes; assay: as above; type: cell-based, Propionibacterium acnes
[3] = test system: S. aureus; assay: as above; type: cell-based, Staphylococcus aureus; details: for MIC50 / MIC90: Staphylococcus aureus
[4] = test system: S. agalactiae; assay: as above; type: cell-based
[5] = test system: S. pneumoniae; assay: as above; type: cell-based, Streptococcus pneumoniae
[6] = test system: E. faecium; assay: as above; type: cell-based; details: for MIC50 / MIC90: Enterococcus faecium
[7] = test system: S. epidermidis; assay: as above; type: cell-based, Staphylococcus epidermidis; details: for MIC50 / MIC90: Staphylococcus epidermidis
[8] = test system: E. faecalis; assay: as above; type: cell-based; details: for MIC50 / MIC90: Enterococcus faecalis
[9] = test system: Streptococcus spp. [Group C]; assay: as above; type: cell-based
[10] = test system: S. haemolyticus; assay: as above; type: cell-based; details: for MIC50 / MIC90: Staphylococcus haemolyticus
[11] = test system: community-acquired methicillin-resistant S. aureus (MRSA-CA); assay: In vitro MIC against isolates of MRSA-CA; type: cell-based, Staphylococcus aureus; details: for MIC50 / MIC90: Staphylococcus aureus
[12] = test system: methicillin-sensitive S. aureus (MSSA); assay: In vitro MIC against isolates of MSSA; type: cell-based, Staphylococcus aureus; details: for MIC Range / MIC50 / MIC90: MSSA (34 isolates); for MIC50 / MIC90: Staphylococcus aureus; for MIC90: read-out: MIC90
[13] = test system: hospital-associated methicillin-resistant S. aureus (MRSA-HA); assay: In vitro MIC against isolates of MRSA-HA; type: cell-based, Staphylococcus aureus; details: for MIC50 / MIC90: Staphylococcus aureus
[14] = MRSA, S. aureus [MRSA] (31 isolates), read-out: MIC50
[15] = MRSA, S. aureus [MRSA] (31 isolates), read-out: MIC90
[16] = MSSA, S. aureus [MSSA] (32 isolates), read-out: MIC50
[17] = MSSA, S. aureus [MSSA] (32 isolates), read-out: MIC90
[18] = S. epidermidis [MRSE] (32 isolates), read-out: MIC50
[19] = S. epidermidis [MRSE] (32 isolates), read-out: MIC90
[20] = S. epidermidis [MSSE] (31 isolates), read-out: MIC50
[21] = S. epidermidis [MSSE] (31 isolates), read-out: MIC90
[22] = S. haemolyticus (33 isolates), read-out: MIC50
[23] = S. haemolyticus (33 isolates), read-out: MIC90
[24] = S. epidermidis [MSSE] (31 isolates)
[25] = S. pneumoniae [PSSP] (32 isolates)
[26] = Streptococcus spp. [Group C] (30 isolates)

CC[C@H]1OC(=O)[C@H](C)[C@@H](O[C@H]2C[C@@](C)(OC)[C@@H](O)[C@H](C)O2)[C@H](C)[C@@H](O[C@@H]2O[C@H](C)C[C@H](N(C)C)[C@H]2O)[C@](C)(O)C[C@@H](C)C(=O)[C@H](C)[C@@H](O)[C@]1(C)O [Erythromycin]
MIC50 ([1]; Streptococcus pyogenes): 0.06 µg/mL (≈ 0.0818 µM)
MIC90 ([1]; Streptococcus pyogenes): 0.06 µg/mL (≈ 0.0818 µM)
MIC50 ([2]; Cutibacterium acnes, read-out: MIC50): ≤ 0.06 µg/mL
MIC90 ([2]; Cutibacterium acnes, read-out: MIC90): > 128 µg/mL
MIC50 [3, 14]: > 32 µg/mL
MIC90 [3, 15]: > 32 µg/mL
MIC50 [3, 16]: 0.5 µg/mL (≈ 0.681 µM)
MIC90 [3, 17]: > 32 µg/mL
MIC50 ([4]; Streptococcus agalactiae): 0.06 µg/mL (≈ 0.0818 µM)
MIC90 ([4]; Streptococcus agalactiae): > 16 µg/mL
MIC50 ([5]; Streptococcus pneumoniae, S. pneumoniae [PSSP] (32 isolates), read-out: MIC50): 0.03 µg/mL (≈ 0.0409 µM)
MIC90 ([5]; Streptococcus pneumoniae, S. pneumoniae [PSSP] (32 isolates), read-out: MIC90): 2 µg/mL (≈ 2.73 µM)
MIC50 [6]: > 32 µg/mL
MIC90 [6]: > 32 µg/mL
MIC50 ([6]; VRE): > 32 µg/mL
MIC90 ([6]; VRE): > 32 µg/mL
MIC50 [7, 18]: > 32 µg/mL
MIC90 [7, 19]: > 32 µg/mL
MIC50 [7, 20]: 0.25 µg/mL (≈ 0.341 µM)
MIC90 [7, 21]: > 32 µg/mL
MIC50 [8]: > 32 µg/mL
MIC90 [8]: > 32 µg/mL
MIC50 ([9]; Streptococcus spp. [Group C] (30 isolates), read-out: MIC50): 0.06 µg/mL (≈ 0.0818 µM)
MIC90 ([9]; Streptococcus spp. [Group C] (30 isolates), read-out: MIC90): 4 µg/mL (≈ 5.45 µM)
MIC50 [10, 22]: > 32 µg/mL
MIC90 [10, 23]: > 32 µg/mL

CC(=O)NC[C@H]1CN(c2ccc(N3CCOCC3)c(F)c2)C(=O)O1 [Linezolid]
MIC Range ([11]; MRSA-CA (33 isolates)): 2 to 4 µg/mL
MIC50 ([11]; MRSA-CA (33 isolates)): 2 µg/mL (≈ 5.93 µM)
MIC90 ([11]; MRSA-CA (33 isolates)): 4 µg/mL (≈ 11.9 µM)
susceptibility of the test organisms ([11]; all MRSA-CA test organisms): susceptible
MIC Range [12]: 2 to 4 µg/mL
MIC50 [12]: 2 µg/mL (≈ 5.93 µM)
MIC90 [12]: 4 µg/mL (≈ 11.9 µM)
susceptibility of the test organisms ([12]; all MSSA test organisms): susceptible
MIC Range ([13]; MRSA-HA (33 isolates)): 2 to 4 µg/mL
MIC50 ([13]; MRSA-HA (33 isolates)): 2 µg/mL (≈ 5.93 µM)
MIC90 ([13]; MRSA-HA (33 isolates)): 2 µg/mL (≈ 5.93 µM)
susceptibility of the test organisms ([13]; all MRSA-HA organisms): susceptible

Cc1onc(-c2ccccc2)c1C(=O)N[C@@H]1C(=O)N2[C@@H]1SC(C)(C)[C@@H]2C(=O)O [Oxacillin]
MIC50 ([11]; MRSA-CA (33 isolates)): 32 µg/mL (≈ 79.7 µM)
MIC90 ([11]; MRSA-CA (33 isolates)): > 32 µg/mL
MIC Range ([3]; S. aureus [MSSA] (32 isolates)): 0.12 to 1 µg/mL
MIC50 [3, 14]: > 32 µg/mL
MIC90 [3, 15]: > 32 µg/mL
MIC50 [3, 16]: 0.5 µg/mL (≈ 1.25 µM)
MIC90 [3, 17]: 1 µg/mL (≈ 2.49 µM)
MIC Range [12]: 0.25 to 2 µg/mL
MIC50 [12]: 0.25 µg/mL (≈ 0.623 µM)
MIC90 [12]: 0.5 µg/mL (≈ 1.25 µM)
MIC Range [7, 24]: 0.06 to 0.25 µg/mL
MIC50 [7, 18]: 32 µg/mL (≈ 79.7 µM)
MIC90 [7, 19]: > 32 µg/mL
MIC50 [7, 20]: 0.12 µg/mL (≈ 0.299 µM)
MIC90 [7, 21]: 0.25 µg/mL (≈ 0.623 µM)
MIC50 ([13]; MRSA-HA (33 isolates)): 32 µg/mL (≈ 79.7 µM)
MIC90 ([13]; MRSA-HA (33 isolates)): > 32 µg/mL
MIC50 [10, 22]: 0.25 µg/mL (≈ 0.623 µM)
MIC90 [10, 23]: > 32 µg/mL

CN[C@H](CC(C)C)C(=O)N[C@H]1C(=O)N[C@@H](CC(N)=O)C(=O)N[C@H]2C(=O)N[C@H]3C(=O)N[C@H](C(=O)N[C@H](C(=O)O)c4cc(O)cc(O)c4-c4cc3ccc4O)[C@H](O)c3ccc(c(Cl)c3)Oc3cc2cc(c3O[C@@H]2O[C@H](CO)[C@@H](O)[C@H](O)[C@H]2O[C@H]2C[C@](C)(N)[C@H](O)[C@H](C)O2)Oc2ccc(cc2Cl)[C@H]1O [Vancomycin]
MIC Range ([1]; S. pyogenes (32 isolates)): 0.25 to 0.5 µg/mL
MIC50 ([1]; Streptococcus pyogenes): 0.25 µg/mL (≈ 0.173 µM)
MIC90 ([1]; Streptococcus pyogenes): 0.25 µg/mL (≈ 0.173 µM)
MIC Range [2]: 0.5-0.5 μg/mL
MIC Range ([3]; S. aureus [MRSA] (31 isolates)): 0.5 to 2 µg/mL
MIC Range ([3]; S. aureus [MSSA] (32 isolates)): 0.5 to 1 µg/mL
MIC50 ([3]; MRSA): 1 µg/mL (≈ 0.69 µM)
MIC90 ([3]; MRSA): 1 µg/mL (≈ 0.69 µM)
MIC50 ([3]; MSSA): 1 µg/mL (≈ 0.69 µM)
MIC90 ([3]; MSSA): 1 µg/mL (≈ 0.69 µM)
MIC Range ([4]; S. agalactiae (31 isolates)): 0.25 to 2 µg/mL
MIC50 ([4]; Streptococcus agalactiae): 0.5 µg/mL (≈ 0.345 µM)
MIC90 ([4]; Streptococcus agalactiae): 0.5 µg/mL (≈ 0.345 µM)
MIC Range [5, 25]: 0.06 to 0.25 µg/mL
MIC50 ([5]; Streptococcus pneumoniae): 0.25 µg/mL (≈ 0.173 µM)
MIC90 ([5]; Streptococcus pneumoniae): 0.25 µg/mL (≈ 0.173 µM)
MIC Range ([6]; E. faecium [VRE] (30 isolates)): >64 µg/mL
MIC Range ([6]; E. faecium [VSE] (32 isolates)): 0.25 to 2 µg/mL
MIC50 [6]: 1 µg/mL (≈ 0.69 µM)
MIC90 [6]: 1 µg/mL (≈ 0.69 µM)
MIC50 ([6]; VRE): > 64 µg/mL
MIC90 ([6]; VRE): > 64 µg/mL
MIC Range ([7]; S. epidermidis [MRSE] (32 isolates)): 1 to 2 µg/mL
MIC Range [7, 24]: 1 to 2 µg/mL
MIC50 [7]: 2 µg/mL (≈ 1.38 µM)
MIC90 [7]: 2 µg/mL (≈ 1.38 µM)
MIC50 ([7]; MRSE): 2 µg/mL (≈ 1.38 µM)
MIC90 ([7]; MRSE): 2 µg/mL (≈ 1.38 µM)
MIC Range ([8]; E. faecalis [VSE] (31 isolates)): 0.5 to 4 µg/mL
MIC50 [8]: 1 µg/mL (≈ 0.69 µM)
MIC90 [8]: 2 µg/mL (≈ 1.38 µM)
MIC50 ([9]; Streptococcus): 0.25 µg/mL (≈ 0.173 µM)
MIC90 ([9]; Streptococcus): 0.5 µg/mL (≈ 0.345 µM)
MIC Range [9, 26]: 0.25 to 1 µg/mL
MIC Range ([10]; S. haemolyticus (33 isolates)): 0.5 to 2 µg/mL
MIC50 [10]: 1 µg/mL (≈ 0.69 µM)
MIC90 [10]: 1 µg/mL (≈ 0.69 µM)

Penicillin
MIC50 ([1]; S. pyogenes (32 isolates)): ≦0.015 μg/mL
MIC90 ([1]; S. pyogenes (32 isolates)): ≦0.015 μg/mL
MIC Range ([1]; S. pyogenes (32 isolates)): ≦0.015-0.25 μg/mL
MIC Range [2]: 0.03 to 0.5 µg/mL
MIC50 ([4]; S. agalactiae (31 isolates)): 0.03 µg/mL
MIC90 ([4]; S. agalactiae (31 isolates)): 1 µg/mL
MIC Range ([4]; S. agalactiae (31 isolates)): ≦0.015-2 μg/mL
MIC50 [5, 25]: ≦0.015 μg/mL
MIC90 [5, 25]: 0.06 µg/mL
MIC Range [5, 25]: ≦0.015-0.12 μg/mL
MIC50 [9, 26]: ≦0.015 μg/mL
MIC90 [9, 26]: ≦0.015 μg/mL
MIC Range [9, 26]: ≦0.015-0.03 μg/mL
